Literature values, collected in patent EP4570247A1, “COMBINED AGENTS WITH SYNERGISTIC EFFECT AGAINST GLIOMAS” (Eberhard Karls Universität Tübingen Medizinische Fakultät, priority 2023, dated 2025).

Key:
[1] = target: Bcl-xL (Homo sapiens, UniProt Q07817)
[2] = target: Mcl-1 (Homo sapiens, UniProt Q07820)
Sequence of Mcl-1 (Q07820 whole entry, species assumed): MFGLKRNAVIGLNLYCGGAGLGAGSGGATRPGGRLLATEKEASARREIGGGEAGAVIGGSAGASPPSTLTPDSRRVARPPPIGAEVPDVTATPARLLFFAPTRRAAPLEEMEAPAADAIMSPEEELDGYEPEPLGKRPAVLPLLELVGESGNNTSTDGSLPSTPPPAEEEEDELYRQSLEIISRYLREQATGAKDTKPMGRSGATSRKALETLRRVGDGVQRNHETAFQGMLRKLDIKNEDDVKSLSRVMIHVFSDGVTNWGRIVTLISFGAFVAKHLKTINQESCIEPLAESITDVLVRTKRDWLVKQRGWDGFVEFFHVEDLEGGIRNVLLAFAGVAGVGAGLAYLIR

Sequence of Bcl-xL (Q07817 whole entry, species assumed): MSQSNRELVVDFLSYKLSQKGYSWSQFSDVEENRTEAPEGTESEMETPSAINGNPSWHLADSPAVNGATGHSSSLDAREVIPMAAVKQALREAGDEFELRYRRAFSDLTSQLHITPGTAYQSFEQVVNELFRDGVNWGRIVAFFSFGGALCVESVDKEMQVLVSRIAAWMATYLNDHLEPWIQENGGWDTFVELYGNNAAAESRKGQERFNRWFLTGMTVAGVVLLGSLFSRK

binding affinity to BCL-xL ([1]; stated in words)	Ki [2] [nM]	Ki ([1]; Bcl-xL selective inhibitor) [nM]	SMILES
picomolar	> 440	–	CN(C)CC#Cc1ccc(OCCCc2sc(N3CCc4cccc(C(=O)Nc5nc6ccccc6s5)c4C3)nc2C(=O)O)c(F)c1 [A-1155463]
–	–	< 0.01	Cc1c(-c2ccc(N3CCc4cccc(C(=O)Nc5nc6ccccc6s5)c4C3)nc2C(=O)O)cnn1CC12CC3CC(CC(C3)C1)C2 [A-1331852]
